Assay results from US8901337B2, “Metal complexes having dual histone deacetylase inhibitory and DNA-binding activity” (Royal College of Surgeons in Ireland, priority 2009, dated 2014).

Test system: DNA in CH1 cells (lymphoma)
Assay: Pt binding to DNA in cultured cells (ICP-MS), CH1
Type: cell-based
Details: 43 μM of Pt complexes, 2 hours of cell treatment
Experimental: Pt DNA binding of Pt complexes was measured in SW480 cells (colon cancer) and CH1 cells (lymphoma) or alternatively A2780 P and A2780 cisR cells (sensitive and resistant to cisplatin respectively). The cells were seeded in 60 mm tissue culture dishes with 10 ml of their respective medium. After overnight incubation the medium was removed and replaced with 10 ml of the respective medium containing a platinum complex giving a final concentration of 43 or 40 μM depending on the experiment. The cells were incubated with a given Pt complex for either 2 or 4 h depending on the experiment. The cells were trypsinised and centrifuged. The supernantant was removed and the cells washed twice with 1×PBS and centrifuged. The pellet was re-suspended in DNA buffer to which Proteinase K (20 mg/mL) and 10% SDS were added. After a gentle shake and incubation at 45° C. for two hours, RNAse (100 mg/mL) was added and the cells were incubated at 37° C. overnight. The volume of supernatant was noted and an equal volume of phenol was added.
The resulting mixture was shook for 10 min, then centrifuged for 10 min at 10° C. The supernatant was transferred into a new centrifuge tube (15 ml) and the volume was noted. […] The absorbance of the DNA by was measured by UV spectrophotometry at 260 nm and 280 nm and the concentration of DNA calculated. Platinum bound to DNA was determined by ICP-MS.

Question: How did the “DNA-bound Pt in CH1” value turn out when `N.N.[Cl][Pt][Cl]` [cisplatin, cis-[Pt^II(NH3)2Cl2], reference compound] was run?
Answer: 10.5 · 10^−15 moles of Pt/μg of DNA
